From patent US20230085307A1, “PYRIDAZINONE COMPOUND AND HERBICIDE” (NISSAN CHEMICAL CORPORATION, priority 2019, published 2023)

How the values were obtained:
[1] = system: wild oat; assay: Test Example 5: herbicidal effect by foliage application, plastic box (Table 20, symbol I); assay type: in vivo, wild oat (Avena fatua); conditions: foliage application, 320 g/ha
Method in brief: (§1)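 Plants sown in sterilized diluvial soil and grown 14 days in a greenhouse at 25° C to 30° C, then sprayed on the foliage with the compound's emulsion diluted in water to a predetermined herbicide amount. Injury to weeds and crops scored three weeks after application on a visual rating scale.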

[2] = system: Italian ryegrass; assay: Test Example 5: herbicidal effect by foliage application, plastic box (Table 20, symbol K); assay type: in vivo, Italian ryegrass (Lolium multiflorum); conditions: foliage application, 320 g/ha
Method in brief: as §1

[3] = system: green foxtail; assay: Test Example 5: herbicidal effect by foliage application, plastic box (Table 20, symbol G); assay type: in vivo, green foxtail (Setaria viridis); conditions: foliage application, 320 g/ha
Method in brief: as §1

[4] = system: persian speedwell; assay: Test Example 4: herbicidal effect by soil treatment (Table 19, symbol R); assay type: in vivo, Persian speedwell (Veronica persica)
Method in brief: (§2)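 Seeds were sown in sterilized diluvial soil and covered with about 1.5 cm of soil. An emulsion formulation diluted with water to a predetermined herbicide amount was sprayed evenly onto the soil surface. Plants grew in a greenhouse at 25° C. to 30° C., and the effect was scored three weeks after application using criteria from an earlier test.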

[5] = system: rice flat sedge; assay: Test Example 3: herbicidal effect by foliage application, Wagner pot (Table 18, symbol E); assay type: in vivo, rice flat sedge (Cyperus iria); conditions: 320 g/ha
Method in brief: (§3)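 Plants were sown in alluvial soil held under 0.1–0.5 cm standing water and grown 14 days in a greenhouse at 25–30 °C. An emulsifiable formulation, water-diluted to the set dose, was then sprayed onto the foliage, and effects were scored three weeks later using previously defined criteria.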

[6] = system: southern crabgrass; assay: Test Example 4: herbicidal effect by soil treatment (Table 19, symbol F); assay type: in vivo, southern crabgrass (Digitaria ciliaris)
Method in brief: as §2

[7] = system: Italian ryegrass; assay: Test Example 4: herbicidal effect by soil treatment (Table 19, symbol K); assay type: in vivo, Italian ryegrass (Lolium multiflorum)
Method in brief: as §2

[8] = system: green foxtail; assay: Test Example 4: herbicidal effect by soil treatment (Table 19, symbol G); assay type: in vivo, green foxtail (Setaria viridis)
Method in brief: as §2

[9] = system: windgrass; assay: Test Example 5: herbicidal effect by foliage application, plastic box (Table 20, symbol L); assay type: in vivo, windgrass (Apera spica-venti); conditions: foliage application, 320 g/ha
Method in brief: as §1

[10] = system: lambsquarters; assay: Test Example 5: herbicidal effect by foliage application, plastic box (Table 20, symbol O); assay type: in vivo, lambsquarters (Chenopodium album); conditions: foliage application, 320 g/ha
Method in brief: as §1

[11] = system: Chinese sprangletop; assay: Test Example 3: herbicidal effect by foliage application, Wagner pot (Table 18, symbol D); assay type: in vivo, chinese sprangletop (Leptochloa chinensis); conditions: 320 g/ha
Method in brief: as §3

[12] = system: redroot pigweed; assay: Test Example 4: herbicidal effect by soil treatment (Table 19, symbol N); assay type: in vivo, redroot pigweed (Amaranthus retroflexus)
Method in brief: as §2

[13] = system: lambsquarters; assay: Test Example 4: herbicidal effect by soil treatment (Table 19, symbol O); assay type: in vivo, lambsquarters (Chenopodium album)
Method in brief: as §2

[14] = system: barnyard grass; assay: Test Example 3: herbicidal effect by foliage application, Wagner pot (Table 18, symbol H); assay type: in vivo, barnyard grass (Echinochloa crus-galli); conditions: 320 g/ha
Method in brief: as §3

[15] = system: velvetleaf; assay: Test Example 4: herbicidal effect by soil treatment (Table 19, symbol M); assay type: in vivo, velvetleaf (Abutilon theophrasti)
Method in brief: as §2

[16] = system: southern crabgrass; assay: Test Example 5: herbicidal effect by foliage application, plastic box (Table 20, symbol F); assay type: in vivo, southern crabgrass (Digitaria ciliaris); conditions: foliage application, 320 g/ha
Method in brief: as §1

[17] = system: velvetleaf; assay: Test Example 5: herbicidal effect by foliage application, plastic box (Table 20, symbol M); assay type: in vivo, velvetleaf (Abutilon theophrasti); conditions: foliage application, 320 g/ha
Method in brief: as §1

[18] = system: barnyard grass; assay: Test Example 4: herbicidal effect by soil treatment (Table 19, symbol H); assay type: in vivo, barnyard grass (Echinochloa crus-galli)
Method in brief: as §2

[19] = system: persian speedwell; assay: Test Example 5: herbicidal effect by foliage application, plastic box (Table 20, symbol R); assay type: in vivo, Persian speedwell (Veronica persica); conditions: foliage application, 320 g/ha
Method in brief: as §1

[20] = system: barnyard grass; assay: Test Example 5: herbicidal effect by foliage application, plastic box (Table 20, symbol H); assay type: in vivo, barnyard grass (Echinochloa crus-galli); conditions: foliage application, 320 g/ha
Method in brief: as §1

[21] = system: blackgrass; assay: Test Example 5: herbicidal effect by foliage application, plastic box (Table 20, symbol J); assay type: in vivo, blackgrass (Alopecurus myosuroides); conditions: foliage application, 320 g/ha
Method in brief: as §1

[22] = system: windgrass; assay: Test Example 4: herbicidal effect by soil treatment (Table 19, symbol L); assay type: in vivo, windgrass (Apera spica-venti)
Method in brief: as §2

[23] = system: wild oat; assay: Test Example 4: herbicidal effect by soil treatment (Table 19, symbol I); assay type: in vivo, wild oat (Avena fatua)
Method in brief: as §2

[24] = system: chickweed; assay: Test Example 4: herbicidal effect by soil treatment (Table 19, symbol P); assay type: in vivo, common chickweed (Stellaria media)
Method in brief: as §2

[25] = system: blackgrass; assay: Test Example 4: herbicidal effect by soil treatment (Table 19, symbol J); assay type: in vivo, blackgrass (Alopecurus myosuroides)
Method in brief: as §2

[26] = amount of applied herbicide 320 g/ha

Cc1nn(C)c(=O)c(-c2c(-c3ccc(F)cc3)sc3ccc(F)cc23)c1OS(=O)(=O)N(C)C [2-009]
effect on wild oat (I) ([1]; 3 weeks after application): 0 (Herbicidal rate of 5% or less (almost no effect))
effect on Italian ryegrass (K) ([2]; 3 weeks after application): 4 (Herbicidal rate of 70% or more and less than 90%)
effect on green foxtail (G) ([3]; 3 weeks after application): 5 (Herbicidal rate of 90% or more (almost completely withered))
herbicidal effect rating, R: persian speedwell ([4]; 320 g/ha): 3 (Herbicidal rate of 40% or more and less than 70%)
herbicidal effect on E (rice flat sedge), rating 0-5 [5]: 4 (Herbicidal rate of 70% or more and less than 90%)
herbicidal effect rating, F: southern crabgrass ([6]; 320 g/ha): 1 (Herbicidal rate of 5% or more and less than 20%)
herbicidal effect rating, K: Italian ryegrass ([7]; 320 g/ha): 4 (Herbicidal rate of 70% or more and less than 90%)
herbicidal effect rating, G: green foxtail ([8]; 320 g/ha): 3 (Herbicidal rate of 40% or more and less than 70%)
effect on windgrass (L) ([9]; 3 weeks after application): 0 (Herbicidal rate of 5% or less (almost no effect))
effect on lambsquarters (O) ([10]; 3 weeks after application): 3 (Herbicidal rate of 40% or more and less than 70%)
herbicidal effect on D (Chinese sprangletop), rating 0-5 [11]: 3 (Herbicidal rate of 40% or more and less than 70%)
herbicidal effect rating, N: redroot pigweed ([12]; 320 g/ha): 5 (Herbicidal rate of 90% or more (almost completely withered))
herbicidal effect rating, O: lambsquarters ([13]; 320 g/ha): 3 (Herbicidal rate of 40% or more and less than 70%)
herbicidal effect on H (barnyard grass), rating 0-5 [14]: 5 (Herbicidal rate of 90% or more (almost completely withered))
herbicidal effect rating, M: velvetleaf ([15]; 320 g/ha): 2 (Herbicidal rate of 20% or more and less than 40%)
effect on southern crabgrass (F) ([16]; 3 weeks after application): 5 (Herbicidal rate of 90% or more (almost completely withered))
effect on velvetleaf (M) ([17]; 3 weeks after application): 4 (Herbicidal rate of 70% or more and less than 90%)
herbicidal effect rating, H: barnyard grass ([18]; 320 g/ha): 0 (Herbicidal rate of 5% or less (almost no effect))
effect on persian speedwell (R) ([19]; 3 weeks after application): 5 (Herbicidal rate of 90% or more (almost completely withered))
effect on barnyard grass (H) ([20]; 3 weeks after application): 4 (Herbicidal rate of 70% or more and less than 90%)
effect on blackgrass (J) ([21]; 3 weeks after application): 0 (Herbicidal rate of 5% or less (almost no effect))
herbicidal effect rating, L: windgrass ([22]; 320 g/ha): 0 (Herbicidal rate of 5% or less (almost no effect))
herbicidal effect rating, I: wild oat ([23]; 320 g/ha): 0 (Herbicidal rate of 5% or less (almost no effect))
herbicidal effect rating, P: chickweed ([24]; 320 g/ha): 4 (Herbicidal rate of 70% or more and less than 90%)
herbicidal effect rating, J: blackgrass ([25]; 320 g/ha): 0 (Herbicidal rate of 5% or less (almost no effect))

CCCC(=O)Oc1c(C)nn(C)c(=O)c1-c1c(-c2ccc(F)cc2OCC)sc2cc(Cl)c(Cl)cc12 [5-054]
herbicidal effect on wild oat (I) ([1]; three weeks after application): 0 (Herbicidal rate of 5% or less (almost no effect))
herbicidal effect on Italian ryegrass (K) ([2]; three weeks after application): 0 (Herbicidal rate of 5% or less (almost no effect))
herbicidal effect on green foxtail (G) ([3]; three weeks after application): 2 (Herbicidal rate of 20% or more and less than 40%)
R: persian speedwell, herbicidal effect grade [4, 26]: 0 (Herbicidal rate of 5% or less (almost no effect))
herbicidal effect on rice flat sedge (E) [5]: 5 (Herbicidal rate of 90% or more (almost completely withered))
F: southern crabgrass, herbicidal effect grade [6, 26]: 0 (Herbicidal rate of 5% or less (almost no effect))
K: Italian ryegrass, herbicidal effect grade [7, 26]: 0 (Herbicidal rate of 5% or less (almost no effect))
G: green foxtail, herbicidal effect grade [8, 26]: 0 (Herbicidal rate of 5% or less (almost no effect))
herbicidal effect on windgrass (L) ([9]; three weeks after application): 1 (Herbicidal rate of 5% or more and less than 20%)
herbicidal effect on lambsquarters (O) ([10]; three weeks after application): 3 (Herbicidal rate of 40% or more and less than 70%)
herbicidal effect on Chinese sprangletop (D) [11]: 2 (Herbicidal rate of 20% or more and less than 40%)
N: redroot pigweed, herbicidal effect grade [12, 26]: 0 (Herbicidal rate of 5% or less (almost no effect))
O: lambsquarters, herbicidal effect grade [13, 26]: 0 (Herbicidal rate of 5% or less (almost no effect))
herbicidal effect on barnyard grass (H) [14]: 4 (Herbicidal rate of 70% or more and less than 90%)
M: velvetleaf, herbicidal effect grade [15, 26]: 0 (Herbicidal rate of 5% or less (almost no effect))
herbicidal effect on southern crabgrass (F) ([16]; three weeks after application): 2 (Herbicidal rate of 20% or more and less than 40%)
herbicidal effect on velvetleaf (M) ([17]; three weeks after application): 4 (Herbicidal rate of 70% or more and less than 90%)
H: barnyard grass, herbicidal effect grade [18, 26]: 0 (Herbicidal rate of 5% or less (almost no effect))
herbicidal effect on persian speedwell (R) ([19]; three weeks after application): 4 (Herbicidal rate of 70% or more and less than 90%)
herbicidal effect on barnyard grass (H) ([20]; three weeks after application): 4 (Herbicidal rate of 70% or more and less than 90%)
herbicidal effect on blackgrass (J) ([21]; three weeks after application): 0 (Herbicidal rate of 5% or less (almost no effect))
L: windgrass, herbicidal effect grade [22, 26]: 0 (Herbicidal rate of 5% or less (almost no effect))
I: wild oat, herbicidal effect grade [23, 26]: 0 (Herbicidal rate of 5% or less (almost no effect))
P: chickweed, herbicidal effect grade [24, 26]: 2 (Herbicidal rate of 20% or more and less than 40%)
J: blackgrass, herbicidal effect grade [25, 26]: 0 (Herbicidal rate of 5% or less (almost no effect))
